Measurements from patent US20120245505A1, “INTRACAMERAL DEVICES FOR SUSTAINED DELIVERY” (priority 2009, published 2012).

Tests used:
[1] = Release of NaF from implanted intracameral device, HRA imaging; assay type: in vivo, New Zealand white (NZW) rabbit; conditions: rabbit eye
Procedure: FIGS. 11A-D illustrate a series of Heidelberg retina angiograph (HRA) images of diffusion from an implanted device. FIGS. 11A-D illustrate HRA images after 2 minutes, 5 minutes, 10 minutes and 20 minutes.
A device in accordance with the present disclosure was loaded with sodium fluorescein (NaF) in a polymeric delivery implant. A New Zealand white (NZW) rabbit had this device implanted in the sub-Tenon's space with the inner port extending into the anterior chamber.
FIG. 11 illustrates that in as little as 2 minutes after implantation, the NaF had begun to disperse into the anterior chamber. By 20 minutes, the NaF had substantially dispersed into most of the anterior chamber.

[2] = system: glaucoma; experiment: Treatment of glaucoma with bimatoprost-coated intracameral implant; assay type: in vivo, human; conditions: person, intracameral implant coated with sustained release formulation, after 2 weeks
Description: They have previously received topical therapy, but to no avail. Their vision is worsening as time progresses. […] After 2 weeks, the IOP is reduced.

[3] = system: age-related macular degeneration; experiment: Treatment of macular degeneration with bimatoprost-coated intracameral implant; assay type: in vivo, human; conditions: person, end of 7-year follow up
Description: A person has age-related macular degeneration and cataracts in both eyes. […] At the end of a 7-year follow up period the patient can have maintained vision in the both eyes of at least 20/32

[4] = system: iris; conditions: topical latanoprost (XALATAN); cited from earlier work

O=C([O-])c1ccccc1-c1c2ccc(=O)cc-2oc2cc([O-])ccc12.[Na+].[Na+] [NaF, sodium fluorescein]
time after implantation at which NaF had begun to disperse into the anterior chamber ([1]; FIG. 11, HRA images): ≤ 2 min | time by which NaF had substantially dispersed into most of the anterior chamber ([1]; FIG. 11, HRA images): ≤ 20 min | release of NaF into the anterior chamber (HRA imaging) ([1]; device with polymeric delivery implant in sub-Tenon's space, inner port extending into anterior chamber): sustained-release of NaF into the anterior chamber

CCNC(=O)CCC/C=C\C[C@@H]1[C@@H](/C=C/[C@@H](O)CCc2ccccc2)[C@H](O)C[C@@H]1O [bimatoprost]
IOP [2]: reduced | maintained vision in both eyes [3]: at least 20/32

CC(C)OC(=O)CCC/C=C\C[C@@H]1[C@@H](CC[C@@H](O)CCc2ccccc2)[C@H](O)C[C@@H]1O [latanoprost]
increase in brown pigment in the iris [4]: 5-15 % of human eyes
